# Results reported in patent US20030027799A1, “Methods of treating cancer using a combination of drugs” (priority 2001, published 2003).
# Tests used:
# [1] = test system: various forms of cancers (e.g. solid tumours, adult leukemia and lymphomas); conditions: Weitman 2000, Giles 2001, Gourdeau 2001; cited from earlier work
# [2] = Dose escalation study of β-L-OddC and cisplatin in cancer patients: dose limiting toxicity, maximum tolerated dose; format: in vivo; conditions: β-L-OddC in combination with cisplatin 50 mg/m^2, administered every four weeks
# Text: The patients selected were adult patients with solid tumours that were refractory to standard therapies. […] They had adequate bone marrow, renal and hepatic function. There were 33 patients treated. Sixteen were male patients and seventeen were female. Twenty patients had colorectal cancer. Two patients had melanoma. One patient each had gastric cancer, islet cell cancer of the pancreas, non-small lung cancer (NSCLC), renal cancer, cervical cancer, breast cancer, ovarian cancer, squamous cell cancer of the pelvis, liver cancer, abdominal cancer and penile cancer. […] The terms LP and HP refer to lightly pre-treated and heavily pre-treated patient status. The term DLT refers to Dose limiting Toxicity.
smiles,measurement,setting,value
"Nc1ccn([C@@H]2CO[C@H](CO)O2)c(=O)n1 [β-L-OddC, (−)-β-L-Dioxolane-Cytidine]",activity in the treatment of various forms of cancers,[1],potent activity
same,recommended dose for heavily pre-treated patients,[2],4.8 mg/m^2
